These results are taken from patent US20110195128A1, “TREATING OR PREVENTING GOUT” (priority 2008, published 2011).

The conditions of series [1]: cited from earlier work.
Series [2] has as its system IL-1β. Kind of series: THP-1 cell assay analysed by ELISA, MSU crystal-stimulated IL-1β release. In kind it is cell-based. To be noted: THP-1 cells. As for the experimental part: (§1) THP-1 cells were cultured in RPMI with 10% FCS, penicillin, streptomycin, glutamine and pyruvate. At day −1, 1.5×10^6 THP-1 cells were plated in 24 well plates. These cells were cultured in the presence or absence of 5 μM phorbol 12-myristate 13-acetate (PMA) for three hours. PMA is required for NALP-3 inflammasome activation and IL-1β production in response to MSU crystals. On day 0, medium was replaced in all wells. Cells were then pre-incubated with vehicle control, test substance at three concentrations, or diclofenac control (10 μg/ml) for 4 hours. MSU crystals were then added (0.5 mg/mL) Supernatants were harvested for ELISA after 16 hours. ELISA was conducted to determine inhibition of IL-1β expression. It has been reported that this cytokine is a pivotal regulator of the inflammatory response to MSU crystals (Chen et al 2006 and Martinon et al 2006). Inhibition of IL-8 expression was also determined.
(§2) A mean change in cytokine expression from cells treated with control vehicle pooled data from all experiments (10 μg/ml). Values represent mean (standard error) from at least three experiments in which cytokine release from wells treated with the highest concentration of milk extract has been normalized to vehicle treated wells.
(§3) The results are shown in Table 2 below and in FIGS. 1 and 2. Table 3 contrasts the result for GMP when the MSU was replaced with a different antigen, LPS. […]
In general terms: ELISA stands for enzyme-linked immunosorbent assay.

The next series deals with IL-1β gene expression. The experiment in a line: THP-1 cell assay analysed by RT-PCR, IL-1β gene expression. To be noted: THP-1 cells, treatment as in Example 1 (FIG. 5). The format is cell-based. From the text:
THP-1 assays were used to study IL-1β and IL-8 gene expression by RT-PCR, using the same treatment protocols as described for the THP-1 ELISA assay in Example 1 above and the RT-PCR protocol described in Dalbeth et al, 2008.

For another series, the system named is urate peritonitis model. Kind of series: Murine urate peritonitis model, total cellular influx. In kind it is in vivo, CD1 mice. Particulars: mice fed for a week before i.p. 3 mg MSU crystals; lavage after four hours; GMP 0.05-0.5 g per kg in drinking water; G600 precursor 12.5-100% of total fat in diet. As for the experimental part: Adult male CD1 mice (Vernon Jansen Unit, University of Auckland) were housed in conventional facilities with temperature control and 12 hour light/dark cycles. All protocols involving live animals were subjected to ethical review and a range of welfare score sheets and action plans were used to monitor and minimize the impact of the study on the animals. Mice were fed milk extracts for a week prior to induction of peritonitis. At least eight mice were used for each experimental condition. GMP was dissolved in drinking water at 0.05, 0.1, 0.25 and 0.5 g per kg mouse. The G600™ milk fat extract precursor (Batch 2, freeze dried, no added lactose) was incorporated into rodent chow at 12.5, 25, 50 and 100% of total fat in diet.
The murine urate peritonitis protocol was based on the model described by Getting et al (1997). Adult male CD1 mice weighing 22-28 g were selected for the urate peritonitis model. Mice were anaesthetized using urethane. Peritonitis was induced by intraperitoneal injection of 3 mg MSU crystals resuspended in 250 μl PBS. The body temperature of anaesthetized mice was monitored and maintained at 37° C. using a heat pad, and hydration was maintained by subcutaneous injection of 0.9% NaCl (Normal Saline) at a volume of […] body weight two hours after initial treatments and every hour thereafter. […]

The subject of another series is IL-8. The experiment in a line: THP-1 cell assay analysed by ELISA, MSU crystal-stimulated IL-8 release. In kind it is cell-based. Particulars: THP-1 cells, PMA, 4 h pre-incubation, MSU crystals 0.5 mg/mL, supernatant after 16 h; highest concentration of test substance; mean of at least three experiments; * p<0.05 vs vehicle. The procedure: as §1, §2, §3
Series [3] has as its system IL-1β. Kind of series: THP-1 cell assay analysed by ELISA, MSU replaced with LPS, IL-1β production. Particulars: THP-1 cells, normalized to vehicle. In kind it is cell-based. The procedure: as §1
The results are shown in Table 2 below and in FIGS. 1 and 2. Table 3 contrasts the result for GMP when the MSU was replaced with a different antigen, LPS. The casein hydrolysate tested was produced by extensively hydrolysing casein (to a degree of hydrolysis of 33%) using the enzymes pancreatin and corolase. […]

For `COc1cc2c(c(OC)c1OC)-c1ccc(OC)c(=O)cc1[C@@H](NC(C)=O)CC2` [colchicine, Colchicine], the adverse effects entry in series [1] (all patients, within 24 hours of taking this medication) is “developed diarrhoea and/or vomiting”. Moreover, in series [1] (gout patients, within 48 hours), the “reduction in pain in joints” value is reported as 50%.
As for Glycomacropeptide [GMP], in the series on IL-1β [2] (PMA, 4 h pre-incubation, MSU crystals 0.5 mg/mL, supernatant after 16 h, highest concentration of test substance, mean of at least three experiments, * p<0.05 vs vehicle), the “IL-1β (cytokine release normalized to vehicle treated wells)” value is recorded as 0.72*. In addition, the “MSU crystal-stimulated IL-1β production” value with IL-1β [2] (normalized to vehicle, * p<0.05) was 0.72*. In the series with IL-1β gene expression, the IL-1β gene expression result is listed as “inhibits”. Besides, the “total cellular influx in the urate peritonitis model” value in the series on urate peritonitis model is recorded as “significant inhibition”. For the same compound, the “IL-8 (cytokine release normalized to vehicle treated wells)” value with IL-8 is 1.22. In the series on IL-1β [3], the “LPS-stimulated IL-1β production” value is given as 0.94.
